Values quoted from earlier work in patent US10617778B2, “Self-sterilizing package and methods for making and using the same” (priority 2014, dated 2020).

System: humans

[O][Cl+][O-] [chlorine dioxide]
vapor concentration at which the gas can be toxic: greater than 0.3 ppm
